Measurements published in US7084144B2, “Sulfonyl group containing compounds and their use for the treatment of erectile dysfunction” (The Jordanian Pharmaceutical MFG & Medical Equipment CO LTD, priority 2000, dated 2006).
Entries after “also recorded” stand apart in the source; their conditions may differ. Values belong to the compound of their own block, whether it stands above or below them.

Tests used:
male rats = experiment: Penile erection (responding rats, PEI, ED50) in male rats after oral administration; type: in vivo, rat; conditions: for PEI (penile erection index) / responding rats % / Calculated ED50: male rats, oral; for PEI (penile erection index) / responding rats %: 10 rats used, 2 hours observation; for Calculated ED50: responding rats as a function of dose; for PEI (penile erection indexes) for selected molecules: Tables 4-6, dose not given
Procedure: The purpose of the study was to compare the biological activity of compound 1 of the present invention with that of sildenafil. In particular, the respective ED50 value (ED=effective dose), erection episodes and penile erection indexes of said compounds in the treatment of male rats were determined. The penile erection index is an established means of determining the erection promoting properties of a substance (see e.g. Benassi-Benelli, F., Ferari, F., and Pellegrini Quaratotti, B., Arch. Int. Pharmacodyn., 242, 241–247, (1979), and Ang. H. H., Sim, M. K., Pharm. Sci., 3, 17–119, (1997) and references cited therein).
In these experiments, compound 1 of the present invention and sildenafil were administered to male rats orally. The doses for sildenafil were 0.0781, 0.1562, 0.3125 and 0.625 mg/kg body weight, while doses for compound 1 of the present invention were 0.3, 0.6, 1, and 2 mg/kg body weight. Both sildenafil and compound 1 of the present invention were dissolved in distilled water. Control animals were administered with water. During the experiments, the rats were placed in glass cages for observation and had free access to food and water. During 2 hours after administration of the investigated compound, the penile erection and self-sucking were monitored.

[1] = tested on: cAMP accumulation in isolated rabbit corpus carvenosum tissue; experiment: cAMP accumulation in isolated rabbit corpus carvenosum tissue (ELISA); type: cell-based, White New Zealand rabbits; conditions: absence of NO donor, FIG. 2; for effect on the accumulation of cAMP levels: up to 20,000 nM
Procedure: (§1) Method for Analysis of cGMP & cAMP Synthesis and Accumulation in Penile Tissues: White New Zealand rabbits were sacrificed. Excise the penises rapidly after killing the animals, remove epidermal & connective tissue. Dissect out and discard the urethra carefully. Cut the penises longitudinally into 2 equal strips and then laterally to give about 20–40 segments. Pool and incubate the segments of the corpus cavernosum in Dulbecco's minimum essential Medium (MEM) at room temperature for one hour to allow the tissues to recover from preparative handling. Effect of Drug on cGMP and cAMP Formation:
(§2) Place one penile segment in triplicate for each drug dose in 200 μl MEM. Place one penile segment in triplicate for each drug dose with 10 μM SNP (sodium nitroprusside) in 200 μl MEM. (in the case of cGMP). Incubate the tubes at 37° C. for 30 min, stop the reaction by adding 200 μl of 1 mol/l perchloric acid and sonicate for 5 min. Neutralize the aliquots with 0.5 mol/l K3PO4.3H2O to pH 6.2 (240 μl), centrifuge and take the supernatant in aliquots. Keep at 4° C. and assay for the concentrations of cAMP and cGMP in the extract using ELISA (enzyme linked immunosorbant assay). Preparation of Zero sample: Add 200 ul MEM, 200 ul 1M perchloric acid and 240 μl 0.5 mol/L K3PO4.3H2O in one tube.
(§3) The main concentrations were in the range 0–20,000 or 100,000 nM. A stock solution of 1 mM for both drugs were prepared in distilled water. Serial dilution were prepared in MEM giving working drug concentrations of 0, 1000, 4000, 8000, 10000, 20000 and 100000 nM. In the case of cGMP the tests were carried out with and without NO donor (SNP). For this purpose 10 μM SNP was included when necessary.

[2] = tested on: cGMP accumulation in isolated rabbit corpus carvenosum tissue; experiment: cGMP accumulation in isolated rabbit corpus carvenosum tissue (ELISA), with and without NO donor SNP; type: cell-based, White New Zealand rabbits; conditions: FIG. 1; for effect on the levels of cGMP: absence of NO donor, tested concentrations up to 100,000 nM
Procedure: as §1, §2, §3

SMILES: CCCc1nn(C)c2c(=O)[nH]c(-c3cc(S(=O)(=O)N4CCN(C)CC4)ccc3OCC)nc12 [Sildenafil, sildenafil, reference compound]
PEI (penile erection index) (male rats; dose 0.0781 mg/kg): 90 | responding rats % (male rats; dose 0.0781 mg/kg): 30% | PEI (penile erection index) (male rats; dose 0.1562 mg/kg): 150 | responding rats % (male rats; dose 0.1562 mg/kg): 30% | PEI (penile erection index) (male rats; dose 0.3125 mg/kg): 350 | responding rats % (male rats; dose 0.3125 mg/kg): 50% | PEI (penile erection index) (male rats; dose 0.625 mg/kg): 980 | responding rats % (male rats; dose 0.625 mg/kg): 70% | Calculated ED50 (male rats): ^(2)Calculated ED50 = 0.2473 mg/kg body weight | concentration giving maximum increase in cAMP levels [1]: 8000–10,000 nM | effect on the accumulation of cAMP levels [1]: remarkable increase | concentration giving maximum increase of cGMP levels ([2]; NO donor added (10 μM SNP)): about 10,000 nM | effect on the levels of cGMP [2]: very little effect; also recorded: almost flat effect

SMILES: CN1CCN(NS(=O)(=O)c2ccccc2)CC1 [R0=—CH3; R1=—H; n=0 (Table 6)]
PEI (penile erection indexes) for selected molecules (male rats): 80

SMILES: Cc1ccc(S(=O)(=O)NN2CCN(C)CC2)cc1 [R0=—CH3; R1=—CH3; n=0 (Table 6)]
PEI (penile erection indexes) for selected molecules (male rats): 90

melting point: 137 to 138 °C
SMILES: CN1CCN(S(=O)(=O)c2ccc3c(c2)OCO3)CC1 [Compound 1]
PEI (penile erection indexes) for selected molecules (male rats): 1015 | PEI (penile erection index) (male rats; dose 0.3 mg/kg): 22.5 | responding rats % (male rats; dose 0.3 mg/kg): 15% | PEI (penile erection index) (male rats; dose 0.6 mg/kg): 260 | responding rats % (male rats; dose 0.6 mg/kg): 40% | PEI (penile erection index) (male rats; dose 1.0 mg/kg): 665 | responding rats % (male rats; dose 1.0 mg/kg): 70% | PEI (penile erection index) (male rats; dose 2.0 mg/kg): 1020 | responding rats % (male rats; dose 2.0 mg/kg): 85% | Calculated ED50 (male rats): ^(3)Calculated ED50 = 0.7822 mg/kg body weight | effect on the accumulation of cAMP levels [1]: no effect at all | concentration giving maximum increase of cGMP levels ([2]; NO donor added (10 μM SNP)): about 4000 nM | effect on cGMP accumulation compared with sildenafil ([2]; NO donor added (10 μM SNP), at 10,000 nM): better effect than sildenafil | effect on the levels of cGMP [2]: very little effect; also recorded: weak effect

SMILES: Cc1ccc(S(=O)(=O)N2CCN(C)CC2)cc1 [R0=—CH3; R1=—CH3 (Table 4)]
PEI (penile erection indexes) for selected molecules (male rats): 240

SMILES: CN1CCN(S(=O)(=O)c2ccccc2)CC1 [R0=—CH3; R1=—H (Table 4)]
PEI (penile erection indexes) for selected molecules (male rats): 420
